Experimental data as given in patent US20230322723A1, “COMPOUNDS FOR SUPPRESSING EGFR MUTANT CANCER AND PHARMACEUTICAL USE THEREOF” (J2H BIOTECH INC., priority 2020, published 2023).

Assays:
EGFR^del19+T790M+C797S = test: EGFR protein degradation test (Western blot) in Ba/F3 cells expressing mutant EGFR del19+T790M+C797S (DTC); type: cell-based; conditions: compounds at 0.1 μM and 1 μM, 24 hours, Western blot with EGFR antibody
Summary of the method: (§1)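 Ba/F3 cells expressing wild-type EGFR, del19+T790M+C797S or L858R+T790M+C797S EGFR were treated with compound at 0.1 μM and 1 μM for 24 h. Lysates (30 μg) were analysed by SDS-PAGE and EGFR Western blot, with bands quantified densitometrically.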

EGFR^L858R+T790M+C797S = biological target: T1, EGFR^L858R+T790M+C797S (Homo sapiens, UniProt P00533, C797S/L858R/T790M); test: EGFR protein degradation test (Western blot) in Ba/F3 cells expressing mutant EGFR L858R+T790M+C797S (LTC); type: cell-based; conditions: compounds at 0.1 μM and 1 μM, 24 hours, Western blot with EGFR antibody
T1 construct: expressed in transfected cells; host or cells: Ba/F3
Summary of the method: as §1

[1] = Pharmacokinetic evaluation after single oral administration to ICR mice; type: in vivo; conditions: for half-life / AUC(0-t): mouse, ICR mice, single oral dose 5 mg/kg, plasma; for AUC(0-t): read-out: AUC0-24
Experimental: Pharmacokinetic tests for the compounds of the present invention were conducted as below. After a single oral administration of the compound of the present invention to ICR mice, the concentration of the compound over time was followed up and analyzed.
The compound of the present invention was suspended in 10% DMSO/90% (30% HPbCD aqueous solution) and orally administered to mice at a dose of 5 mg/kg. Blood was collected at a fixed time and plasma was separated. Drug analysis was performed using HPLC (XBridge column C18, Waters, mobile phase 0.1% formic acid:acetonitrile (30:70, %/%)) and MS/MS (ESI positive, MRM). Mouse blood plasma and each commercially available standard solution were mixed at a ratio of 9:1 to prepare and calibrate at concentrations of […] 5,000 ng/mL. In addition, the preparation of QC samples was prepared by mixing the mouse blood plasma and the standard solution for QC at a ratio of 9:1, and prepared to be concentrations of 100, 750 and 2,500 ng/mL. 100 μL of the plasma sample was transferred to a centrifugation tube, and 10 μL of the internal standard solution and 300 μL of methanol were added, followed by mixing for about 30 seconds for pretreatment. The tube was centrifuged at 3,000×g (4° C.) for about 5 minutes, and the supernatant was taken and transferred to an LC vial and injected into the instrument. Then, the concentration of the compound in mouse plasma was quantified by applying a previously validated assay. For pharmacokinetic parameters, the program WinNonlin 5.2 (Pharsight, USA) was used. AUC0-t, AUC0-∞, Cmax, Tmax, and t1/2 were calculated by Noncompartment modeling (best fit). The pharmacokinetic parameter results were expressed as the mean (Mean) and standard deviation (SD), and were statistically processed using the SPSS program (Statistical Package for the Social Sciences, 10.0K, USA).

[2] = 69, 70, 75, 78, 82 vs compounds 53 and 65
[3] = 74, 76, 77, 80, 81 vs 45, 71, 51, 65, 53

T1 sequence (P00533 25-1210 T790M/C797S/L858R): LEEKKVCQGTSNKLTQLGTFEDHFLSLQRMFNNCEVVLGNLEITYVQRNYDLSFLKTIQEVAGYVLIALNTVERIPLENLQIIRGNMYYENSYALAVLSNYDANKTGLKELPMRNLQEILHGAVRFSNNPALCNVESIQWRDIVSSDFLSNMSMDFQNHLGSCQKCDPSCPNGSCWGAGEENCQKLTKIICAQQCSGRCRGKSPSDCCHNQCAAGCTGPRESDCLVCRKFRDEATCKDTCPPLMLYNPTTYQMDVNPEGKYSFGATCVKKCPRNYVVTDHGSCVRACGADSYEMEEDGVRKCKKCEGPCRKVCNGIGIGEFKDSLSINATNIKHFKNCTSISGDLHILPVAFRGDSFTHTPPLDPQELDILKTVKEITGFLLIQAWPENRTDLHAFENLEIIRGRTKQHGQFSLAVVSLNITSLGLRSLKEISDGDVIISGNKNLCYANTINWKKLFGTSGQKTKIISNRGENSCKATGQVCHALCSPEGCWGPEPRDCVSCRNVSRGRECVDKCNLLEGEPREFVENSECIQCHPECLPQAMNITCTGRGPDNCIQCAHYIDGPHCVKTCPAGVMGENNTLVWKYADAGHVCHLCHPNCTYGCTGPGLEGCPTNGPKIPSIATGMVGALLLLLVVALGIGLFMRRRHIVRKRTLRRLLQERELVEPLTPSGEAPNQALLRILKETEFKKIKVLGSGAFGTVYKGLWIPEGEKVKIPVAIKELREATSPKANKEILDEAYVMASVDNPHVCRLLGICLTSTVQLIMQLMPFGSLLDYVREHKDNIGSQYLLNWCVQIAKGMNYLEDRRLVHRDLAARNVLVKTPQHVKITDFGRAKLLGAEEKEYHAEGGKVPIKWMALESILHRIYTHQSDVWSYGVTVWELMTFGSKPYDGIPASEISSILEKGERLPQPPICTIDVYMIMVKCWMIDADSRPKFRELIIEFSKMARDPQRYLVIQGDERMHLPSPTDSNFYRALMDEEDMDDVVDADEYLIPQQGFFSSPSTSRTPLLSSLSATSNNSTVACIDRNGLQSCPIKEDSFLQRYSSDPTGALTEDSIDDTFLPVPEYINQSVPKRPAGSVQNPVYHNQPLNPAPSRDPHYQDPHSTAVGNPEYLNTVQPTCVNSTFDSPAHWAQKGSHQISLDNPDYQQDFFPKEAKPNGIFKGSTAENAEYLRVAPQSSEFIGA

Compound	DTC (EGFR^del19+T790M+C797S) protein degradation (EGFR^del19+T790M+C797S)	LTC (EGFR^L858R+T790M+C797S) protein degradation (EGFR^L858R+T790M+C797S)	half-life [1] [h]	AUC(0-t) [1] [ng·h/mL]	AUC compared to the corresponding compounds [1, 2]	AUC compared to the corresponding compounds [1, 3]
COc1cc(N2CCN(CC3CCN(C(=O)CNc4cccc5c4C(=O)N(C4CCC(=O)NC4=O)C5=O)CC3)CC2)ccc1Nc1ncc(Cl)c(Nc2ccccc2N(C)S(C)(=O)=O)n1 (stereo not shown) [Compound 65, N-(2-((5-chloro-2-((4-(4-((1-((2-(2,6-dioxopiperidin-3-yl)-1,3-dioxoisoindolin-4-yl)glycyl)piperidin-4-yl)methyl)piperazin-1-yl)-2-methoxyphenyl)amino)pyrimidin-4-yl)amino)phenyl)-N-methylmethanesulfonamide]	++ (Protein degradation > 80%)	++ (Protein degradation > 80%)	4.01	607	–	–
COc1cc(N2CCN(CC3CCN(C(=O)[C@@H](C)Oc4cccc5c4C(=O)N(C4CCC(=O)NC4=O)C5=O)CC3)CC2)ccc1Nc1ncc(Cl)c(Nc2ccccc2N(C)S(C)(=O)=O)n1 (stereo partly shown) [Compound 69]	++ (Protein degradation > 80%)	++ (Protein degradation > 80%)	3.22	280	significantly improved AUC	–
COc1cc(N2CCN(CC3CCN(C(=O)[C@H](C)Nc4cccc5c4C(=O)N(C4CCC(=O)NC4=O)C5=O)CC3)CC2)ccc1Nc1ncc(Cl)c(Nc2ccccc2N(C)S(C)(=O)=O)n1 (stereo partly drawn) [Compound 70, N-(2-((5-chloro-2-((4-(4-((1-((2-(2,6-dioxopiperidin-3-yl)-1,3-dioxoisoindolin-4-yl)-L-alanyl)piperidin-4-yl)methyl)piperazin-1-yl)-2-methoxyphenyl)amino)pyrimidin-4-yl)amino)phenyl)-N-methylmethanesulfonamide]	++ (Protein degradation > 80%)	++ (Protein degradation > 80%)	3.07	598	significantly improved AUC	–
COc1cc(N2CCC(N3CCN(CC4CCN(c5ccc6c(c5)C(=O)N(C5CCC(=O)NC5=O)C6=O)CC4)CC3)CC2)ccc1Nc1ncc(Cl)c(Nc2ccccc2N(C)S(C)(=O)=O)n1 (stereo not shown) [Compound 71, N-(2-((5-chloro-2-((4-(4-(4-((1-(2-(2,6-dioxopiperidin-3-yl)-1,3-dioxoisoindolin-5-yl)piperidin-4-yl)methyl)piperazin-1-yl)piperidin-1-yl)-2-methoxyphenyl)amino)pyrimidin-4-yl)amino)phenyl)-N-methylmethanesulfonamide]	+ (Protein degradation 20~80%)	++ (Protein degradation > 80%)	7.77	1230	–	–
COc1cc(N2CCC(N3CCN(CCNc4cccc5c4C(=O)N(C4CCC(=O)NC4=O)C5=O)CC3)CC2)c(C)cc1Nc1ncc(Cl)c(Nc2ccccc2N(C)S(C)(=O)=O)n1 (stereo not shown) [Compound 74, N-(2-((5-chloro-2-((4-(4-(4-(2-((2-(2,6-dioxopiperidin-3-yl)-1,3-dioxoisoindolin-4-yl)amino)ethyl)piperazin-1-yl)piperidin-1-yl)-2-methoxy-5-methylphenyl)amino)pyrimidin-4-yl)amino)phenyl)-N-methylmethanesulfonamide]	− (Protein degradation < 20%)	++ (Protein degradation > 80%)	4.44	5520	–	significantly improved AUC
COc1cc(N2CCN(CC3CCN(C(=O)[C@H](C)Nc4cccc5c4C(=O)N(C4CCC(=O)NC4=O)C5=O)CC3)CC2)c(C)cc1Nc1ncc(Cl)c(Nc2ccccc2N(C)S(C)(=O)=O)n1 (stereo partly drawn) [Compound 75, N-(2-((5-chloro-2-((4-(4-((1-((2-(2,6-dioxopiperidin-3-yl)-1,3-dioxoisoindolin-4-yl)-L-alanyl)piperidin-4-yl)methyl)piperazin-1-yl)-2-methoxy-5-methylphenyl)amino)pyrimidin-4-yl)amino)phenyl)-N-methylmethanesulfonamide]	++ (Protein degradation > 80%)	++ (Protein degradation > 80%)	2.82	2040	significantly improved AUC	–
COc1cc(N2CCC(N3CCN(CC4CCN(c5ccc6c(c5)C(=O)N(C5CCC(=O)NC5=O)C6=O)CC4)CC3)CC2)c(C)cc1Nc1ncc(Cl)c(Nc2ccccc2N(C)S(C)(=O)=O)n1 (stereo not shown) [Compound 76, N-(2-((5-chloro-2-((4-(4-(4-((1-(2-(2,6-dioxopiperidin-3-yl)-1,3-dioxoisoindolin-5-yl)piperidin-4-yl)methyl)piperazin-1-yl)piperidin-1-yl)-2-methoxy-5-methylphenyl)amino)pyrimidin-4-yl)amino)phenyl)-N-methylmethanesulfonamide]	+ (Protein degradation 20~80%)	++ (Protein degradation > 80%)	6.66	5240	–	significantly improved AUC
COc1cc(N2CCC(N3CCN(CCC4CCN(c5ccc6c(c5)C(=O)N(C5CCC(=O)NC5=O)C6=O)CC4)CC3)CC2)c(C)cc1Nc1ncc(Cl)c(Nc2ccccc2N(C)S(C)(=O)=O)n1 (stereo not shown) [Compound 77, N-(2-((5-chloro-2-((4-(4-(4-(2-(1-(2-(2,6-dioxopiperidin-3-yl)-1,3-dioxoisoindolin-5-yl)piperidin-4-yl)ethyl)piperazin-1-yl)piperidin-1-yl)-2-methoxy5-methylphenyl)amino)pyrimidin-4-yl)amino)phenyl)-N-methylmethanesulfonamide]	+ (Protein degradation 20~80%)	++ (Protein degradation > 80%)	2.96	1170	–	significantly improved AUC
COc1cc(N2CCC(CN3CCN(C(=O)[C@H](C)Nc4cccc5c4C(=O)N(C4CCC(=O)NC4=O)C5=O)CC3)CC2)c(C)cc1Nc1ncc(Cl)c(Nc2ccccc2N(C)S(C)(=O)=O)n1 (stereo partly drawn) [Compound 78, N-(2-((5-chloro-2-((4-(4-((4-((2-(2,6-dioxopiperidin-3-yl)-1,3-dioxoisoindolin-4-yl)-L-alanyl)piperazin-1-yl)methyl)piperidin-1-yl)-2-methoxy-5-methylphenyl)amino)pyrimidin-4-yl)amino)phenyl)-N-methylmethanesulfonamide]	++ (Protein degradation > 80%)	++ (Protein degradation > 80%)	3.75	5740	significantly improved AUC	–
COc1cc(N2CCC(CN3CCN(c4ccc5c(c4)C(=O)N(C4CCC(=O)NC4=O)C5=O)CC3)CC2)c(C)cc1Nc1ncc(Cl)c(Nc2ccccc2N(C)S(C)(=O)=O)n1 (stereo not shown) [Compound 79, N-(2-((5-chloro-2-((4-(4-((4-(2-(2,6-dioxopiperidin-3-yl)-1,3-dioxoisoindolin-5-yl)piperazin-1-yl)methyl)piperidin-1-yl)-2-methoxy-5-methylphenyl)amino)pyrimidin-4-yl)amino)phenyl)-N-methylmethanesulfonamide]	− (Protein degradation < 20%)	+ (Protein degradation 20~80%)	3.47	1130	–	–
COc1cc(N2CCN(CC3CCN(C(=O)CNc4cccc5c4C(=O)N(C4CCC(=O)NC4=O)C5=O)CC3)CC2)c(C)cc1Nc1ncc(Cl)c(Nc2ccccc2N(C)S(C)(=O)=O)n1 (stereo not shown) [Compound 80, N-(2-((5-chloro-2-((4-(4-((1-((2-(2,6-dioxopiperidin-3-yl)-1,3-dioxoisoindolin-4-yl)glycyl)piperidin-4-yl)methyl)piperazin-1-yl)-2-methoxy-5-methylphenyl)amino)pyrimidin-4-yl)amino)phenyl)-N-methylmethanesulfonamide]	++ (Protein degradation > 80%)	++ (Protein degradation > 80%)	3.55	1040	–	significantly improved AUC
